This note sets out measurements from patent US20250082633A1, “COMPOUNDS AND METHODS FOR MODULATING SPLICING” (REMIX THERAPEUTICS INC., priority 2021, published 2025).

Assay type in all cases: cell-based
The test system of one experiment is HTT mRNA. The experiment can be described thus: RT-qPCR splicing assay, HTT canonical (CJ) and alternative (AJ) junction mRNA. The conditions noted are these: Homo sapiens; for AC50: read-out: HTT AJ AC50; for pIC50: read-out: HTT CJ IC50. On the procedure: (§1) Compounds described herein were used to modulate RNA transcript abundance in cells. The expression of a target mRNA was measured by detecting the formation of an exon-exon junction in the canonical transcript (CJ). A compound mediated exon-inclusion event was detected by observing an increase in formation of a new junction with an alternative exon (AJ). Real-time qPCR assays were used to detect these splicing switches and interrogate the potency of various compounds towards different target genes. A high-throughput real time quantitative PCR (RT-qPCR) assay was developed to measure these two isoforms of the mRNA (CJ and AJ) for exemplary genes, such as HTT, SMN2, and MYB, together with a control housekeeping gene, GAPDH or GUSB or PPIA, used for normalization. Briefly, the A673 or K562 cell line was treated with various compounds described herein (e.g., compounds of Formula (I)). After treatment, the levels of the HTT, MYB, or SMN2 mRNA targets were determined from each sample of cell lysate by cDNA synthesis followed by qPCR.
(§2) • Cells-to-CT 1-step kit: ThermoFisher A25602, Cells-to-CT lysis reagent: ThermoFisher 4391851C, TaqMan™ Fast Virus 1-Step Master Mix: ThermoFisher 4444436 • GAPDH: VIC-PL, ThermoFisher 4326317E (Assay: Hs99999905_m1)—used for K562/suspension cell lines • GUSB: VIC-PL, ThermoFisher 4326320E (Assay: Hs99999908_m1)—used for K562/suspension cell lines • PPIA: VIC-PL, ThermoFisher 4326316E (Assay: Hs99999904_m1)—used for A673/adherent cell lines
(§3) The A673 cell line was cultured in DMEM with 10% FBS. Cells were diluted with full growth media and plated in a 96-well plate (15,000 cells in 100 ul media per well). The plate was incubated at 37° C. with 5% CO2 for 24 hours to allow cells to adhere. An 11-point 3-fold serial dilution of the compounds was made in DMSO then diluted in media in an intermediate plate. Compounds were transferred from the intermediate plate to the cell plate with the top dose at a final concentration of 10 uM in the well. Final DMSO concentration was kept at or below 0.25%. The cell plate was returned to the incubator at 37° C. with 5% CO2 for an additional 24 hours.
(§4) The K562 cell line was cultured in IMDM with 10% FBS. For K562, cells were diluted with full growth media and plated in either a 96-well plate (50,000 cells in 50 uL media per well) or a 384-well plate (8,000-40,000 cells in 45 uL media per well). An 11-point 3-fold serial dilution of the compounds were made in DMSO then diluted in media in an intermediate plate. Compound was transferred from the intermediate plate to the cell plate with the top dose at a final concentration of 10 uM in the well. Final DMSO concentration was kept at or below 0.25%. Final volume was 100 uL for 96-well plate and 50 uL for 384-well plate. The cell plate was then placed in an incubator at 37° C. with 5% CO2 for 24 hours.
(§5) The cells were then gently washed with 50 uL-100 uL cold PBS before proceeding to addition of lysis buffer. 30 uL-50 μL of room temperature lysis buffer with DNAse I (and optionally RNAsin) was added to each well. Cells were shaken/mixed thoroughly at room temperature for 5-10 minutes for lysis to take place and then 3 uL-5 μL of room temperature stop solution was added and wells were shaken/mixed again. After 2-5 minutes, the cell lysate plate was transferred to ice for RT-qPCR reaction setup. The lysates could also be frozen at −80° C. for later use.
(§6) In some cases, a direct lysis buffer was used. An appropriate volume of 3× lysis buffer (10 mM Tris, 150 mM NaCl, 1.5%-2.5% Igepal and 0.1-1 U/uL RNAsin, pH 7.4) was directly added to either K562 or A673 cells in media and mixed by pipetting 3 times. The plates were then incubated at room temperature with shaking/rocking for 20-50 minutes to allow for lysis to take place. After this time, the cell lysate plate was transferred to ice to set up for the RT-qPCR reactions. The lysates could also be frozen at −80° C. for later use. […]

A further experiment has as its system SMN2 mRNA. Briefly: RT-qPCR splicing assay, gene panel, SMN2 canonical junction (CJ) mRNA. Conditions: Homo sapiens, read-out: SMN2 CJ IC50. How it is done: as §1, §3, §4, §5
In some cases, a direct lysis buffer was used. An appropriate volume of 3× lysis buffer (10 mM Tris, 150 mM NaCl, 1.5%-2.5% Igepal and 0.1-1 U/uL RNAsin, pH 7.4) was directly added to either K562 or A673 cells in media and mixed by pipetting 3 times. The plates were then incubated at room temperature with shaking/rocking for 20-50 minutes to allow for lysis to take place. After this time, the cell lysate plate was transferred to ice to set up for the RT-qPCR reactions. The lysates could also be frozen at −80° C. for later use.
To set up 10 uL RT-qPCR reactions, cell lysates were transferred to 384-well qPCR plates containing the master mix according to the table below. The plates were sealed, gently vortexed, and spun down before the run. The volumes were adjusted accordingly in some instances where the reaction was carried in 20 μL. The table below summarizes the components of the RT-qPCR reactions:
The RT-qPCR reaction was performed using a QuantStudio (ThermoFisher) under the following fast cycling conditions. […]

A further experiment concerns MYB mRNA. The experiment can be described thus: RT-qPCR splicing assay, MYB canonical (CJ) and alternative (AJ) junction mRNA. Conditions: Homo sapiens; for AC50: read-out: MYB AJ AC50; for pIC50: read-out: MYB CJ IC50. How it is done:
as §1, §2, §3, §4, §5, §6

Setting [1] is: decrease in CJ mRNA levels, larger panel of genes, Table 3.
Setting [2] is: decrease in canonical junction mRNA, A673 or K562 cells, 24 hours treatment, Table 2.
[3] abbreviates: increase in alternative junction mRNA, A673 or K562 cells, 24 hours treatment, Table 2.

pIC50: −log10 of the molar value. Like-named read-outs stand apart in the source and are kept apart here. A value given as a limit tells only on which side of the number the result lay.

On to `Cc1cn2nc(-c3cc(F)c4nn(C5CCN(C6CCC6)CC5)cc4c3)cc(C)c2n1` [Compound 151, 6-[2-(1-cyclobutyl-4-piperidyl)-7-fluoro-indazol-5-yl]-2,8-dimethyl-imidazo [1,2-b] pyridazine], for which the AC50 in the experiment on HTT mRNA (24 h) is below 100 nM; in the experiment with MYB mRNA (24 h), 100 to 1000 nM. For the same compound, the pIC50 in the experiment on HTT mRNA (24 h), in the experiment with HTT mRNA, with SMN2 mRNA, in the experiment on MYB mRNA (24 h) and in the experiment with MYB mRNA was above 7.00 in each case.
Consider `Cn1cc2cc(-c3cc(F)c4nn(C5CCNCC5)nc4c3)cc(F)c2n1` [Compound 103, 4-fluoro-6-(7-fluoro-2-methyl-indazol-5-yl)-2-(4-piperidyl) benzotriazole], for which the pIC50 is 6.00 to 7.00 in the experiment with HTT mRNA (setting [1]); 6.00 to 7.00 with HTT mRNA (setting [2]); 6.00 to 7.00 in the experiment with SMN2 mRNA (setting [1]); 5.00 to 6.00 in the experiment with MYB mRNA (setting [1]); 5.00 to 6.00 with MYB mRNA (setting [2]). Besides, the AC50 in the experiment with HTT mRNA (setting [3]) fell in the range of 100 to 1000 nM; in the experiment with MYB mRNA (setting [3]) it was 1000 to 10000 nM.
For the compound `Cc1cn2nc(-c3cc(F)c4nn(C5CCNC6(CC6)C5)cc4c3)cc(C)c2n1` (centres unmarked) [Compound 171, 6-[2-(4-azaspiro[2.5]octan-7-yl)-7-fluoro-indazol-5-yl]-2,8-dimethyl-imidazo[1,2-b]pyridazine], the pIC50 in the experiment with HTT mRNA (setting [1]) was above 7.00; with HTT mRNA (setting [2]) it was above 7.00; with SMN2 mRNA (setting [1]), above 7.00; in the experiment with MYB mRNA (setting [1]), 6.00 to 7.00; in the experiment on MYB mRNA (setting [2]) it was 6.00 to 7.00. Besides, the AC50 in the experiment on HTT mRNA (setting [3]) was below 100 nM; with MYB mRNA (setting [3]) it was 100 to 1000 nM.
As to `Cc1c(O)c(-c2ccc3nn(C4CCNCC4)nc3n2)cc2cn(C)nc12` [Compound 113, 2,7-dimethyl-5-[2-(4-piperidyl)triazolo[4,5-b]pyridin-5-yl]indazol-6-ol], the pIC50 is 5.00 to 6.00 in the experiment on HTT mRNA (setting [1]); 5.00 to 6.00 in the experiment on HTT mRNA (setting [2]); 5.00 to 6.00 with SMN2 mRNA (setting [1]); below 5.00 in the experiment on MYB mRNA (setting [1]); below 5.00 with MYB mRNA (setting [2]). Besides, the AC50 in the experiment on HTT mRNA (setting [3]) was 1000 to 10000 nM; in the experiment on MYB mRNA (setting [3]), above 10000 nM.
As for `Cc1ccc2nc(-c3cc(F)c4nn(C5CCNCC5)cc4c3)ccc2n1` [Compound 157, 2-[7-fluoro-2-(4-piperidyl)indazol-5-yl]-6-methyl-1,5-naphthyridine], the pIC50 with HTT mRNA (setting [1]) is below 5.00; with HTT mRNA (setting [2]), below 5.00; with SMN2 mRNA (setting [1]), 5.00 to 6.00; in the experiment on MYB mRNA (setting [1]), 5.00 to 6.00; with MYB mRNA (setting [2]) it was 5.00 to 6.00. Also, the AC50 with HTT mRNA (setting [3]) and with MYB mRNA (setting [3]) was above 10000 nM each time.
As for `Cc1cn2nc(-c3cc(F)c4nn(C5CCN(C6CCC6)C6(CC6)C5)cc4c3)cc(C)c2n1` (centres unmarked) [Compound 186, 6-[2-(4-cyclobutyl-4-azaspiro[2.5]octan-7-yl)-7-fluoro-indazol-5-yl]-2,8-dimethyl-imidazo[1,2-b]pyridazine], the concentration at half-maximal activity (AC50) in the experiment with HTT mRNA (24 h) was below 100 nM; in the experiment on MYB mRNA (24 h) it was 100 to 1000 nM. The pIC50 in the experiment with HTT mRNA (24 h) is above 7.00; in the experiment with HTT mRNA it was above 7.00; in the experiment on SMN2 mRNA, above 7.00; in the experiment with MYB mRNA (24 h), 6.00 to 7.00; in the experiment with MYB mRNA, 6.00 to 7.00.
`Cc1cc(-n2cc3cc(N4CCNCC4)ccc3n2)cc2cn(C)nc12` [Compound 121, 2,7-dimethyl-5-(5-piperazin-1-ylindazol-2-yl)indazole]: the negative logarithm of the IC50 (pIC50) is below 5.00 with HTT mRNA (setting [1]); below 5.00 in the experiment with HTT mRNA (setting [2]); 5.00 to 6.00 in the experiment on SMN2 mRNA (setting [1]); below 5.00 with MYB mRNA (setting [1]); below 5.00 with MYB mRNA (setting [2]). Also, the AC50 in the experiment on HTT mRNA (setting [3]) and with MYB mRNA (setting [3]) was above 10000 nM in each case.
With `Cc1cn2nc(-c3cc(F)c4nn(C5CCNC6(CCC6)C5)cc4c3)cc(C)c2n1` (centres unmarked) [Compound 189, 6-[2-(5-azaspiro[3.5]nonan-8-yl)-7-fluoro-indazol-5-yl]-2,8-dimethyl-imidazo[1,2-b]pyridazine], the negative-log IC50 (pIC50) in the experiment on HTT mRNA (setting [1]) was above 7.00; in the experiment with HTT mRNA (setting [2]) it was above 7.00; in the experiment on SMN2 mRNA (setting [1]) it was above 7.00; in the experiment with MYB mRNA (setting [1]) it was 6.00 to 7.00; with MYB mRNA (setting [2]), 6.00 to 7.00. The AC50 in the experiment on HTT mRNA (setting [3]) is below 100 nM; with MYB mRNA (setting [3]), 100 to 1000 nM.
As to `Cc1cn2nc(-c3cc(F)c4nn(C5CCN(CCO)C6(CC6)C5)cc4c3)cc(C)c2n1` (centres unmarked) [Compound 180, 2-[7-[5-(2,8-dimethylimidazo[1,2-b]pyridazin-6-yl)-7-fluoro-indazol-2-yl]-4-azaspiro[2.5]octan-4-yl]ethanol], the results for the AC50 with HTT mRNA (24 h) and in the experiment with MYB mRNA (24 h) were below 100 nM and 100 to 1000 nM, respectively. Moreover, the negative logarithm of the IC50 (pIC50) in the experiment with HTT mRNA (24 h) was above 7.00; in the experiment on HTT mRNA, above 7.00; in the experiment with SMN2 mRNA, above 7.00; in the experiment with MYB mRNA (24 h), 6.00 to 7.00; in the experiment with MYB mRNA it was 6.00 to 7.00.
As to `Cc1cn2nc(-c3ccc4nn(C5CCNCC5)cc4n3)cc(C)c2n1` [Compound 138, 2,8-dimethyl-6-[2-(4-piperidyl)pyrazolo[4,3-b]pyridin-5-yl]imidazo[1,2-b]pyridazine], the pIC50 in the experiment on HTT mRNA (setting [1]) was above 7.00; in the experiment with HTT mRNA (setting [2]), above 7.00; in the experiment on SMN2 mRNA (setting [1]) it was above 7.00; with MYB mRNA (setting [1]), 6.00 to 7.00; in the experiment with MYB mRNA (setting [2]) it was 6.00 to 7.00. The AC50 in the experiment with HTT mRNA (setting [3]) is 100 to 1000 nM; in the experiment on MYB mRNA (setting [3]) it was 1000 to 10000 nM.
Turning to `Cc1cn2nc(-c3cc4cn(C5CCNCC5)nc4cn3)cc(C)c2n1` [Compound 147, 2,8-dimethyl-6-[2-(4-piperidyl)pyrazolo[3,4-c]pyridin-5-yl]imidazo[1,2-b]pyridazine], the pIC50 with HTT mRNA (setting [1]), in the experiment on HTT mRNA (setting [2]), in the experiment on SMN2 mRNA (setting [1]), with MYB mRNA (setting [1]) and with MYB mRNA (setting [2]) was 6.00 to 7.00 in each case. Further, the AC50 in the experiment with HTT mRNA (setting [3]) and with MYB mRNA (setting [3]) was 100 to 1000 nM each time.
